# Measured values reported in US11752147B2, “Pharmaceutical composition for the treatment of pain” (AZIENDE CHIMICHE RIUNITE ANGELINI FRANCESCO A.C.R.A.F. …, priority 2015, dated 2023).
# Legend:
# [1] = system: acetic acid-induced writhing in mice; assay: Acetic acid-induced writhing test in mice; details: vs vehicle
# Protocol: (§1) The test compounds were evaluated in the model of acetic acid-induced writhing in mice (Stock J. L. et al., J. Clin. Inv. 2001, 107: 325 331).
# (§2) Writhing test is a chemical method used to induce pain of peripheral origin by injection of acetic acid in mice. Analgesic activity is inferred from decrease in the frequency of writhing.
# (§3) This test allowed evaluation of the antinociceptive activity of the compounds of the invention in a model of inflammatory pain.
# (§4) Writhing is defined as a stretch, tension to one side, extension of hind legs, contraction of the abdomen so that the abdomen of mice touches the floor, turning the trunk (twist).
# (§5) Male CD-1 mice weighing 20-25 g were used for the test.
# (§6) One hour after the treatment, an intraperitoneal injection of acetic acid (0.7% v/v in physiological saline, 16 μl/g of body weight) was given to the mice to induce inflammatory pain and to check the effects of the test compound on the nociceptive response.
# (§7) Five minutes after the administration of acetic acid and for the following 10 minutes the number of writhes was measured, which represents the parameter for evaluation of the nociceptive response. The analgesic activity is evaluated as % inhibition.
# [2] = system: acetic acid-induced writhing in mice; details: mouse, in vivo, po
# Protocol: as §1, §2, §3, §4, §5, §6, §7
# [3] = system: allodynia induced by ligature of the sciatic nerve in rats; assay: Ligature of the sciatic nerve in rats (allodynia, von Frey); type: in vivo; details: one hour after administration, vs vehicle
# Protocol: Male CD rats weighing 200-250 g on arrival were used.
# The allodynia was induced by ligature under anaesthesia of the sciatic nerve of the left hind leg [Seltzer Z, Dubner R, Shir Y. A novel behavioural model of neuropathic pain disorders produced in rats by partial sciatic nerve injury. Pain 1990; 43: 205-218; Bennet G J, Xie Y K. A peripheral mononeuropathy in rat that produces disorders of pain sensation like those seen in man. Pain 1988; 33: 87-107].
# The pain threshold was measured with a von Frey machine, which makes it possible, by applying a gradual increase in pressure to the paw of the left hind leg of the rat, to record the nociceptive response, expressed in grams, corresponding to the moment at which the animal withdraws the leg.
# After-treatment measurement was made at one hour following administration. The analgesic activity is evaluated as % reversal.
smiles,measurement,setting,value
"O=c1n(CCCN2CCN(c3cccc(Cl)c3)CC2)nc2ccccn12 [Trazodone, trazodone]",Writhing number reduction %,"[1]; Table 2 TEST 1 (FIG. 2a), 0.15 mg/kg oral",16.0%
same,Writhing number reduction %,"[1]; Table 2 TEST 2 (FIG. 2b), 0.5 mg/kg oral",44.4%
same,Writhing number reduction %,"[1]; Table 2 TEST 3 (FIG. 2c), 1.5 mg/kg oral",57.1%
same,Writhing number reduction %,"[1]; Table 3 TEST 1 RATIO 1:20, 0.075 mg/kg oral",2.1%
same,Writhing number reduction %,"[1]; Table 3 TEST 2 RATIO 1:10, 0.15 mg/kg oral",16.0%
same,Writhing number reduction %,"[1]; Table 3 TEST 3 RATIO 1:5, 0.15 mg/kg oral",16.3%
same,Writhing number reduction %,"[1]; Table 3 TEST 4 RATIO 1:1, 0.15 mg/kg trazodone oral",12.2%
same,Writhing number reduction %,"[1]; Table 3 TEST 5 RATIO 5:1, 0.75 mg/kg oral",57.4%
same,Writhing number reduction %,"[1]; Table 3 TEST 6 RATIO 10:1, 1.5 mg/kg oral",59.7%
same,ED50,[2],1.2 mg/kg
same,Reversal %,[3]; 0.3 mg/kg,3.1%
"NCC1(CC(=O)O)CCCCC1 [Gabapentin, gabapentin]",Writhing number reduction %,"[1]; Table 2 TEST 1 (FIG. 2a), 1.5 mg/kg oral",27.1%
same,Writhing number reduction %,"[1]; Table 2 TEST 2 (FIG. 2b), 5 mg/kg oral",38.1%
same,Writhing number reduction %,"[1]; Table 2 TEST 3 (FIG. 2c), 15 mg/kg oral",45.9%
same,Writhing number reduction %,"[1]; Table 3 TEST 1 RATIO 1:20, 1.5 mg/kg oral",29.2%
same,Writhing number reduction %,"[1]; Table 3 TEST 2 RATIO 1:10, 1.5 mg/kg oral",27.1%
same,Writhing number reduction %,"[1]; Table 3 TEST 3 RATIO 1:5, 0.75 mg/kg oral",22.4%
same,Writhing number reduction %,"[1]; Table 3 TEST 4 RATIO 1:1, 0.15 mg/kg gabapentin oral",28.3%
same,Writhing number reduction %,"[1]; Table 3 TEST 5 RATIO 5:1, 0.15 mg/kg oral",30.2%
same,Writhing number reduction %,"[1]; Table 3 TEST 6 RATIO 10:1, 0.15 mg/kg oral",27.2%
same,Reversal %,[3]; 3.0 mg/kg,3.7%
same,Reversal %,[3]; 100 mg/kg (effective amount),37.0%
